Source: the SangsterLogP compilation

| Structure (SMILES) | logP |
| --- | --- |
| COC1(NC(=O)CSc2snc(O)c2C(=O)O)C(=O)N2C(C(=O)O)=C(CSc3nnnn3C)CSC21 (stereo unspecified) | 1.43 |
| CNC(=O)C(C(=O)O)=C1SC(C(=O)NC2(OC)C(=O)N3C(C(=O)O)=C(CSc4nnnn4C)CSC32)S1 (stereo unspecified) | 1.82 |
| COC1(NC(=O)C2SC(=C(SC)C(=O)O)S2)C(=O)N2C(C(=O)O)=C(CSc3nnnn3C)CSC21 (stereo unspecified) | 2.6 |
| CCSC(C(=O)O)=C1SC(C(=O)NC2(OC)C(=O)N3C(C(=O)O)=C(CSc4nnnn4C)CSC32)S1 (stereo unspecified) | 2.86 |
| COC(C(=O)O)=C1SC(C(=O)NC2(OC)C(=O)N3C(C(=O)O)=C(CSc4nnnn4C)CSC32)S1 (stereo unspecified) | 2 |
| COC1(NC(=O)C2SC(=CC(=O)O)S2)C(=O)N2C(C(=O)O)=C(CSc3nnnn3C)CSC21 (stereo unspecified) | 2.19 |

The remaining lines, values ahead:

| logP | Structure (SMILES) |
| --- | --- |
| 1.73 | COC1(NC(=O)C2SC(=C(C#N)C(=O)O)S2)C(=O)N2C(C(=O)O)=C(CSc3nnnn3C)CSC21 (stereo unspecified) |
| 1.25 | COC1(NC(=O)C2SC(=C(C(=O)O)S(N)(=O)=O)S2)C(=O)N2C(C(=O)O)=C(CSc3nnnn3C)CSC21 (stereo unspecified) |
| 2.01 | COC1(NC(=O)C2SC(C(C(=O)O)C(=O)N(C)C)S2)C(=O)N2C(C(=O)O)=C(CSc3nnnn3C)CSC21 (stereo unspecified) |
| 2.98 | COC1(NC(=O)C2SC(C(C(=O)O)C(=O)c3ccccc3)S2)C(=O)N2C(C(=O)O)=C(CSc3nnnn3C)CSC21 (stereo unspecified) |
| 2.66 | COC1(NC(=O)C2SC(=C(C)C(=O)O)S2)C(=O)N2C(C(=O)O)=C(CSC3=NN=NN(C)C3)CSC21 (stereo unspecified) |
